Patent US9522909B2, “Thiazolidinedione derivatives, preparation thereof and use thereof in cancer treatment” (UNIVERSITE DE LORRAINE, priority 2012, dated 2016)
Counter-ions that a name gives are not always drawn.

Tests used:
female NMRI mice = test: Toxicity test on mice (maximum tolerated dose, intravenous injection); settings: mouse, in vivo, iv
Experimental: (§1) A toxicity test was conducted on mice for the molecules D and E. These molecules therefore only differ by the substituted methyl group on thiazolidinedione. As a comparison, the test was also conducted by using Δ2TGZ. These analyses were conducted on female NMRI mice weighing 20-25 g. Groups of three mice were set up: a non-injected control batch, a batch receiving the solvent of the molecules to be tested (water PPI, polyethylene glycol 400, absolute ethanol mixture in proportions 5/3/2), three other batches receiving the molecules to be tested. The compounds were injected into the tail vein of mice anaesthetized beforehand. The animals were weighed before and then 24 hours and 48 hours after intravenous injection of the products at the different tested doses and then they were also weighed three times a week for two weeks. The behavior of the whole of the mice was observed before, and then one hour, two hours and three hours after the intravenous injection and then daily for two weeks. The compounds were first tested at the limit of their solubility.

MDA435 = test: Antiproliferative activity (MTS) on MDA435; type: cell-based; settings: Homo sapiens, 10^-5 M, 72 hours, triplicate, read-out: percentage of inhibition of cell growth, MDA435
Experimental: (§2) Antiproliferative activity was measured for different compounds according to the invention by analysis of cytoxicity at 10^−5M on diverse cancer cell lines in DMSO in triplicate. For certain molecules and certain lines, the same procedure was used for determining the IC50 values (the required concentration in μM for inhibiting by half the proliferation of the cells), by conducting cytotoxicity tests at concentrations from 0.005 μM to 100 μM in duplicate. The procedure is the following. The cells of the relevant line are sown in the suitable medium (see Table III) added with L-glutamine, with 10% (v/v) of fetal calf serum, 100 IU of penicillin, 100 μg/mL of streptomycin and 1.5 μg/mL of fungizone and maintained under 5% of CO2 at 37° C. 96-well plates are sown with the required number of cells per well (see Table III) in 200 μL of medium. 24 hours later, the chemical compounds to be investigated, dissolved in DMSO, are added and the media are maintained for 72 hours under these conditions with a set final concentration in DMSO (1%). The controls received an equal volume of DMSO. The number of viable cells is measured at 490 nm with the MTS reagent (Promega, Madison Wis.). The IC50s are calculated as the concentrations of compounds inducing 50% inhibition of cell proliferation.
(§3) Tables IV and V below indicate the percentage of inhibition of cell growth, i.e. the percentage of dead cells after treatment with a compound dose of 10^−5 M. The tests were conducted in triplicate.

Mia-PaCa = test: Antiproliferative activity (MTS) on Mia-PaCa; type: cell-based; settings: Homo sapiens, MIA PaCa-2, 72 hours; for inhibition at 10 µM: 10^-5 M, triplicate, read-out: percentage of inhibition of cell growth, Mia-PaCa; for IC50: averages of two independent values
Experimental: as §2, §3

[1] = Toxicity test on mice (maximum tolerated dose, intravenous injection); settings: mouse, in vivo; female NMRI mice, intravenous injection into the tail vein, observed two weeks
Experimental: as §1

[2] = tested on: cryopreserved human hepatocytes (primary culture); test: Hepatocyte viability (MTT test) on suspended cryopreserved human hepatocytes; type: cell-based; settings: 90 minutes incubation, relative to non treated cells, Table I campaign
Experimental: The hepatocyte viability corresponds to the percentage of surviving suspended human hepatocytes after 90 minutes of incubation with the compounds of the invention present at a concentration of […].
Hepatocyte viability was measured for different compounds according to the invention with cryopreserved human hepatocytes (primary culture) suspended and distributed in 96-well plates with a density of 0.1×10^6 cells per well, in a […] culture medium per well (DMEM+gentamycin (50 mg/L)+insulin (4 mg/L)+dexamethasone (1 μM)) in a CO2/air (5%/95%) humidified atmosphere at 37° C. After 30 minutes for attaining equilibrium, […] of culture medium containing the tested compounds (dissolved in DMSO) or of medium only containing DMSO (final concentration of 0.1%) were added with stirring at 900 rpm.
Cytotoxicity is evaluated with an MTT (Thiazolyl Blue Tetrazolium Bromide) test. The tested compounds or the DMSO are left to incubate for 90 minutes, and then 10 μL of MTT at 10 mg/10 mL are added per well for 30 mins. Next, the plates are centrifuged for 10 minutes at 2,000 g, the MTT is removed and some DMSO is added in an amount of 100 μL per well. The plates are gently shaked and then absorbance is measured at 595 nm by means of a spectrophotometric reader of micro-plates. The hepatocyte viability measured here corresponds to the percentage of surviving hepatocytes after 90 minutes of incubation with the compounds tested at a concentration of 100 μM, relatively to non treated cells.
The same tests were conducted for a concentration of compounds at 200 μM.
The tests were conducted in two distinct campaigns. In both cases, troglitazone (K) was used as a reference molecule.

MCF7 = test: Antiproliferative activity (MTS) on MCF7; type: cell-based, human; settings: Homo sapiens, MCF7, 72 hours; for inhibition at 10 µM: 10^-5 M, triplicate, read-out: percentage of inhibition of cell growth, MCF7; for IC50: averages of two independent values
Experimental: as §2, §3

HepG2 = test: Antiproliferative activity (MTS) on HepG2; type: cell-based; settings: Homo sapiens, 72 hours; for inhibition at 10 µM: 10^-5 M, triplicate, read-out: percentage of inhibition of cell growth, HepG2; for IC50: averages of two independent values
Experimental: as §2, §3

LNCaP = test: Antiproliferative activity (MTS) on LNCaP; type: cell-based; settings: Homo sapiens, 72 hours; for inhibition at 10 µM: 10^-5 M, triplicate, read-out: percentage of inhibition of cell growth, LNCaP; for IC50: averages of two independent values
Experimental: as §2, §3

PC3 = test: Antiproliferative activity (MTS) on PC3; type: cell-based; settings: Homo sapiens, PC-3; 10^-5 M, 72 hours, triplicate; read-out: percentage of inhibition of cell growth, PC3
Experimental: as §2, §3

MDA231 = test: Antiproliferative activity (MTS) on MDA231; type: cell-based, human; settings: Homo sapiens, MDA-MB-231, 72 hours; for inhibition at 10 µM: 10^-5 M, triplicate, read-out: percentage of inhibition of cell growth, MDA231; for IC50: averages of two independent values
Experimental: as §2, §3

HCT116 = test: Antiproliferative activity (MTS) on HCT116; type: cell-based; settings: Homo sapiens, HCT-116; 10^-5 M, 72 hours, triplicate; read-out: percentage of inhibition of cell growth, HCT116
Experimental: as §2, §3

SMILES	maximum tolerated dose (female NMRI mice)	inhibition at 10 µM (MDA435) [%]	inhibition at 10 µM (Mia-PaCa) [%]	IC50 (Mia-PaCa) [µM]	MTD at 2 weeks [1] [mg/kg]	Hepatocyte viability % (100 μM) [2] [%]	Hepatocyte viability % (200 μM) [2] [%]	inhibition at 10 µM (MCF7) [%]	IC50 (MCF7) [µM]	inhibition at 10 µM (HepG2) [%]	IC50 (HepG2) [µM]	inhibition at 10 µM (LNCaP) [%]	IC50 (LNCaP) [µM]	inhibition at 10 µM (PC3) [%]	inhibition at 10 µM (MDA231) [%]	IC50 (MDA231) [µM]	inhibition at 10 µM (HCT116) [%]
Cc1c(C)c2c(c(C)c1O)CCC(C)(COc1ccc(C=C3SC(=O)NC3=O)cc1)O2 (stereo not drawn) [Δ2TGZ, reference compound]	less than 34 mg/kg																
Cc1c(C)c2c(c(C)c1CCCCCCN)CCC(C)(COc1ccc(/C=C3\SC(=O)NC3=O)cc1)O2 (racemic) [E, (±) 5-{4-[6-(6-amino-hexyl)-2,5,7,8-tetramethyl-chroman-2-ylmethoxy]-benzylidene}thiazolidine-2,4-dione trifluoroacetate]		65	94	3.9	34	83	80	97	6.4	87	3.1	53	5.1	40	92	4.7	93
Cc1c(C)c2c(c(C)c1CCCCCCN)CCC(C)(COc1ccc(/C=C3\SC(=O)N(C)C3=O)cc1)O2 (racemic) [D, (±) 5-{4-[6-(6-amino-hexyl)-2,5,7,8-tetramethyl-chroman-2-ylmethoxy]-benzylidene}-3-methyl-thiazolidine-2,4-dione trifluoroacetate]		101	103	3.2	65.5	83	83	101	6.9	100	7.9	88	6.5	92	101	4.6	101
